Measurements published in patent US20060052451A1, “Method” (priority 2002, published 2006).

How the values were obtained:
[1] = Plasma levels of PFOA after 11 days oral dosing in SD rats (LC/MS/MS); assay type: in vivo, rat; conditions: 25 mg/kg oral daily for 11 days, 24 hours after final administration
Description: The study consisted of one control group of 8 male CD Sprague Dawley rats (8-10-weeks old; obtained from Harlan, UK) and 4 test groups that contained 4 rats. Animals received powdered RM1 diet ad libitum for the duration of the study. […] All chemicals were dissolved in Mazola corn oil (at 2.5 mg/ml) and test compounds were administered at 10 ml/kg bodyweight. Control animal received Mazola corn oil only. All animals were sacrificed after 11 days. Animals were killed by exposure to rising concentrations of CO2, and blood was harvested into lithium/heparin tubes for plasma.
Rat plasma samples were denatured by adding acetonitrile, and the amount of perfluorooctanoic acid (PFOA) present was determined by LC/MS/MS.

[2] = 21-day diet study, bodyweights of SD rats; assay type: in vivo, rat; conditions: 300 ppm in diet, 21 days
Description: This experiment investigated the effect of compounds of different % linearity on body weight over a longer study period.
The diet study consisted of one control group of 4 male animals and 4 test groups of 4 male animals (as specified earlier in this Example). Animals received powdered RM1 diet alone, or RM1 diet containing 300 ppm XEN1001 or XEN1002, ad libitum for the duration of the study. Bodyweights were measured daily for 21 days.

[3] = system: HT-29 cells (human colon tumour-derived); experiment: SRB growth inhibition assay, HT-29 cells; assay type: cell-based; conditions: Homo sapiens, HT-29, 48 h, 48 hours exposure
Description: (§1) The effect of perfluorinated compounds on the inhibition of tumour cell growth was assessed iii vitro using three human tumour-derived cell lines. Cancer cell lines were tested using the sulphorhodamine B (SRB) assay (which measures cellular protein and is directly related to cell number), which is utilised by the […] to screen anti-cancer agents.
(§2) HT-29 cells (human colon tumour-derived), MCF7 cells (human breast cancer-derived) and PC3 cells (human prostate cancer-derived) were harvested and diluted (to 5×10^4 cells per ml, 1×10^5 cells per ml and 7.5×10^4 cells per ml respectively) in RPMI 1640 medium containing 5% FBS, 2 mM glutamine and. 50 μg/ml gentamicin. 100 μl of cell suspension per well was added to 96 well plates and allowed to attach overnight. Cells were exposed to test compounds dissolved in DMSO in 100 μl of medium to give final drug concentrations of 0, 0.3, 1, 3, 10, 30, 100, 300, 1000 and 3000 μM (and DMSO at 0.25%). (n=6 for each drug concentration). After 48 hours, cells were fixed in 10% trichloroacetic acid (TCA) at 4° C. for 1-2 hours then washed using water and subsequently air-dried. 100 μl SRB solution (0.4%) in 1% Acetic Acid was added to each well, and plates were incubated at room temperature for 10 minutes. Unbound dye was removed by washing with 1% acetic acid. Plates were air-dried and bound stain was solubilised in 10 mM Tris base and the absorbance read at 520 nm.

[4] = system: MCF7 cells (human breast cancer-derived); experiment: SRB growth inhibition assay, MCF7 cells; assay type: cell-based; conditions: Homo sapiens, MCF7, 48 h, 48 hours exposure
Description: as §1, §2

[5] = system: PC3 cells (human prostate cancer-derived); experiment: SRB growth inhibition assay, PC3 cells; assay type: cell-based; conditions: Homo sapiens, PC-3, 48 hours exposure
Description: as §1, §2

[6] = system: three human tumour-derived cell lines (HT-29, MCF7, PC3); experiment: SRB growth inhibition, summary over the three human tumour cell lines; assay type: cell-based; conditions: Homo sapiens; over HT-29, MCF7 and PC3
Description: as §1, §2

PPAR gamma = target: T1, PPAR gamma (Homo sapiens, UniProt P37231); experiment: PPAR gamma transactivation assay in COS-1 cells; assay type: cell-based; conditions: at 1 mM, mean±SD n=3
T1 construct: 25 ng of vector DNA carrying PPAR alpha, delta or gamma; expressed in transfected cells; host or cells: COS-1 (African green monkey kidney cells)
T1 sequence (P37231 1-505): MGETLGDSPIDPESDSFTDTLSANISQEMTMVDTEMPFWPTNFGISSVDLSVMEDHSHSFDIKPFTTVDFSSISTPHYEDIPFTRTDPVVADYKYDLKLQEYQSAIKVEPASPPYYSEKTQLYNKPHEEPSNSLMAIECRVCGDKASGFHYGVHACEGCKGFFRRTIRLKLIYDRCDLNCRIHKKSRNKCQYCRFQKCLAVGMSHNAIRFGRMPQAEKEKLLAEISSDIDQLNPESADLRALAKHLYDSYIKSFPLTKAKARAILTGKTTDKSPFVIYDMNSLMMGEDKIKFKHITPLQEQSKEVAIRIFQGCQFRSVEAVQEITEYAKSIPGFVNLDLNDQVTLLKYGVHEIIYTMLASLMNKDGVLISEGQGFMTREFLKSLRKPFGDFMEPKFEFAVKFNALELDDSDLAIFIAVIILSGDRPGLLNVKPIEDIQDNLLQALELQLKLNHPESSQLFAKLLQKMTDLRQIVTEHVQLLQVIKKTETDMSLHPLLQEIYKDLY

PPAR delta = target: T2, PPAR delta (Homo sapiens, UniProt Q03181); experiment: PPAR delta transactivation assay in COS-1 cells; assay type: cell-based; design: Fold activation of PPAR delta: dose or concentration left out as unconfirmed; conditions: mean±SD n=3
T2 construct: 25 ng of vector DNA carrying PPAR alpha, delta or gamma; expressed in transfected cells; host or cells: COS-1 (African green monkey kidney cells)
T2 sequence (Q03181 1-441): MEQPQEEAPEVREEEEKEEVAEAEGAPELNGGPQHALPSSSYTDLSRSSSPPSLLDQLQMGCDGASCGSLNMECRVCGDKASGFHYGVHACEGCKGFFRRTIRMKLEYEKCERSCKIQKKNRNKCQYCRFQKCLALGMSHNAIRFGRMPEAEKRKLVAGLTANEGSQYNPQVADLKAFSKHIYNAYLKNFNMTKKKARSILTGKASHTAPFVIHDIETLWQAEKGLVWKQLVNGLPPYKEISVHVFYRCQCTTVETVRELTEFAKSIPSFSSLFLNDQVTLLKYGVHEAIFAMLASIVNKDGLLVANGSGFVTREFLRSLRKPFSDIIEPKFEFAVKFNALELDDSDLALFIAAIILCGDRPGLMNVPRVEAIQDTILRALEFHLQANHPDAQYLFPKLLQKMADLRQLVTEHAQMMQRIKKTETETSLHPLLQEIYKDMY

[7] = 7-day oral gavage study, metabolic parameters, body weight and food consumption in CR SD rats; assay type: in vivo, rat; conditions: for Cholesterol (plasma) / Glucose (plasma) / Insulin (plasma) / Triglycerides (plasma): n=5
Description: Two groups (n=5) of CR SD rats (approximately 300 g) were treated with 2 dose levels of perfluorinated compounds (15 and 25 mg/kg/day body weight). Animals were administered test substances, dissolved in corn oil, by oral gavage, daily for 7 days. One group of 20 CR SD rays was also treated with vehicle (corn oil) alone. Body weight and food consumption were monitored daily.
Twenty-four hours after the last dose the animals were killed by an increasing concentration of carbon dioxide. Blood was collected by cardiac puncture and plasma was prepared and stored at −70° C. until analysed.
Plasma was analysed for triglycerides, cholesterol, and glucose, using kits purchased from Sigma. Concentrations of plasma insulin were determined using a commercially available enzyme-immunoassay-based kit from Amersham Biosciences. All assays were carried out as specified by the manufacturer.

PPAR alpha = target: T3, PPAR alpha (Rattus norvegicus, UniProt P37230); experiment: PPAR alpha transactivation assay in COS-1 cells; assay type: cell-based; conditions: at 10 μM, mean±SD n=3
T3 construct: 25 ng of vector DNA carrying PPAR alpha, delta or gamma; expressed in transfected cells; host or cells: COS-1 (African green monkey kidney cells)
T3 sequence (P37230 1-468): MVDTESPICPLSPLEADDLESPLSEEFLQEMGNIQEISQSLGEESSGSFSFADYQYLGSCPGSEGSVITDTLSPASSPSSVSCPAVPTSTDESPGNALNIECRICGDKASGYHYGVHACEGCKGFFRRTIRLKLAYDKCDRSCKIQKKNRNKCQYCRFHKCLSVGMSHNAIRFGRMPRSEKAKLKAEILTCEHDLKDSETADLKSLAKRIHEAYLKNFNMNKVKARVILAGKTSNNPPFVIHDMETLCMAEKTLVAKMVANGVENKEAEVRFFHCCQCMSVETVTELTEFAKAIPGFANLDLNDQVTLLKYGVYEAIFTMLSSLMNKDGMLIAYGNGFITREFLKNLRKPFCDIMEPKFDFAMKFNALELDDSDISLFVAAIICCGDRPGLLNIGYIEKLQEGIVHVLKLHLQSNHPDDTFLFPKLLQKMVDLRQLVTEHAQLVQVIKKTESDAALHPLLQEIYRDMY

[8] = 15 mg/kg/day oral gavage 7 days
[9] = 25 mg/kg/day oral gavage 7 days

N.O=C(O)C(F)(F)C(F)(F)C(F)(F)C(F)(F)C(F)(F)C(F)(F)C(F)(F)F [XEN1002, Ammoniumperfluorooctanoate]
Plasma concentration of PFOA (free acid) [1]: equimolar concentrations of PFOA
Lost bodyweight up to day [2]: 10 days
Weight loss compared with XEN1001 [2]: more pronounced

COC(=O)C(F)(F)C(F)(F)C(F)(F)C(F)(F)C(F)(F)C(F)(F)C(F)(F)F [MPOA, Methyl perfluorooctanoate]
IC50 [3]: > 3000 µM
IC50 [4]: > 2790 µM
IC50 [5]: > 3000 µM
IC50 [6]: ~3000 µM
Fold activation of PPAR gamma (PPAR gamma): 2.92 ± 0.12 fold
Fold activation of PPAR delta (PPAR delta): 1.51 ± 0.31 fold
Plasma insulin, % of control values ([7]; 15 mg/kg): 2.6%
Weight loss ([7]; 15 mg/kg, 7 days): 8.2%
Cholesterol (plasma) [7, 8]: 1.17 ± 0.31 mmol/L
Glucose (plasma) [7, 8]: 11.48 ± 1.27 mmol/L
Insulin (plasma) [7, 8]: 4.87 ± 2.611 ng/mL
Triglycerides (plasma) [7, 8]: 0.28 ± 0.08 mmol/L
Plasma cholesterol, % of control values ([7]; 25 mg/kg): 36.7%
Plasma insulin, % of control values ([7]; 25 mg/kg): 15.6%
Plasma triglycerides, % of control values ([7]; 25 mg/kg): 33.7%
Bodyweight lost ([7]; 25 mg/kg, after day 6, terminated early): 8%
Cholesterol (plasma) [7, 9]: 0.73 ± 0.23 mmol/L
Glucose (plasma) [7, 9]: 12.99 ± 2.07 mmol/L
Insulin (plasma) [7, 9]: 28.74 ± 17.22 ng/mL
Triglycerides (plasma) [7, 9]: 0.6 ± 0.89 mmol/L
Bodyweight change ([7]; 15 and 25 mg/kg/day, continued till end of treatment): lost bodyweight after day 3
Food consumption ([7]; 15 and 25 mg/kg/day, versus control): dose-related, decreases in food consumption
Plasma glucose, % of control values ([7]; dose not stated): 78.6%
Plasma concentration of PFOA (free acid) [1]: equimolar concentrations of PFOA

Cc1cccc(Nc2cc(Cl)nc(SCC(=O)O)n2)c1C [Wyeth14643]
Fold activation of PPAR alpha, positive control (PPAR alpha): 8.88 ± 1.94 fold

N.O=C(O)C(F)(F)C(F)(F)C(F)(F)C(F)(F)C(F)(F)C(F)(F)C(F)(F)F [XEN1001, Ammoniumperfluorooctanoate]
Plasma concentration of PFOA (free acid) [1]: equimolar concentrations of PFOA
Lost bodyweight up to day [2]: 7 days
